One may read the solubility as how much of the substance goes into solution per volume.

Data set [1] in a line: Polymorph screen of Exo-impurity. In kind it is physicochemical.
Data set [2] is classed as physicochemical. The settings on record: for Time of conversion to Form C in the solid-state: ambient temperature. Here is the method: Powder X-Ray Diffraction (PXRD). PXRD diffractograms were acquired on a PANalytical X'Pert Pro diffractometer using Ni-filtered Cu Ka (45 kV/40 mA) radiation and a step size of 0.03° 2θ and X'celerator™ RTMS (Real Time Multi-Strip) detector. Configuration on the incidental beam side: variable divergence slits (10 mm irradiated length), 0.04 rad Soller slits, fixed anti-scatter slit (0.50 o), and 10 mm beam mask. Configuration on the diffracted beam side: variable anti-scatter slit (10 mm observed length) and 0.04 rad Soller slit. Samples were mounted flat on zero-background Si wafers.
Group D solvates converted to Form C in the solid-state at different rates, depending on the solvent included. […] No phase-pure Group D was isolated from acetone-containing solvents, indicating the unstable nature of this solvate.

A further data set is described as follows: Gravimetric solubility. The class given is physicochemical. The settings on record: 20 °C, organic solvent or mixture, thermodynamic from solid, RT, read-out: Gravimetric Solubility at RT. Here is the method: Additional solids or solvents were added to visual solubility samples with vials less than 100 mg/mL to produce slurries at 20 and 50° C. for the subsequent equilibrium solubility assessment. The slurries were stirred at 20 and 50° C. overnight, filtered through 0.2 μm syringe filters and evaporated to dryness under reduced pressure at ambient temperature. Gravimetric solubility was calculated by dividing the dry solids residue mass (mg) by the solvent mass (g). The mg/g solubility values were then converted to mg/mL using solvent density.
The solubility of Group D acetone and DMF solvates were assessed in the corresponding solvents.

The nature of data set [3]: Competitive ripening (relative thermodynamic stability of non-solvated forms). The settings on record: for Nature (thermodynamic stability of crystal form): Table 6 summary.
Data set [4] can be described thus: D9 solubility in the liquors at isolation temperature. The conditions noted are these: organic solvent or mixture, thermodynamic from solid. The class given is physicochemical. Here is the method:
At the end of each experiment, suspensions were equilibrated at the isolation temperature (25 or 5° C.) for at least 18 hours and the solids and liquors separated by centrifugation at the isolation temperature. The Exo/D9/D8 ratio (Exo-D9-THC-naphthoylester impurity/D9-THC-naphthoylester/D8-THC-naphthoylester) was determined in both the isolated solids and the liquors, from which the % Exo-depletion in the isolated solids was calculated. Several solids were also isolated at elevated temperatures to assess the impact of the isolation temperature on Exo-impurity depletion.
In addition, the solubility of D9 in the liquors was determined in most of the explored solvents and used to estimate the yield.

Setting [5] is: Experiment No. 20, Nitromethane, seed Form E.
Where [6] appears, read: Experiment No. 21, DMSO, seed Group D.
The mark [7] stands for this setting: Experiment No. 22, Acetone, seed Group D.
The mark [8] stands for this setting: Experiment No. 23, MeCN, seed Group D.
[9] abbreviates: Experiment No. 24, P-Xylene/MeOH (10:90), seed Form E.

Values after ≈ are worked out from the molar mass of the structure shown. “Also recorded” adds a separate entry of the source.

For the compound `C=C1CC[C@@H]2[C@@H](C1)c1c(OC(=O)c3ccc4ccccc4c3)cc(CCCCC)cc1OC2(C)C` [Exo, (6aR,10aR)-6,6-dimethyl-9-methylene-3-pentyl-6a,7,8,9,10,10a-hexahydro-6H-benzo[c]chromen-1-yl 2-naphthoate], the “Form Isolated at 5° C. 6 D (Exo)” value in data set [1] (setting [5]), in data set [1] (setting [6]), in data set [1] (setting [7]), in data set [1] (setting [8]) and in data set [1] (setting [9]) was “Input” each time. Also, the “Form Isolated at RT 5 D (Exo)” value is “Input” in data set [1] (setting [5]); “Input” in data set [1] (setting [6]); “No” in data set [1] (setting [7]); “Input” in data set [1] (setting [8]); “Input” in data set [1] (setting [9]). Further, the Polymorphism entry in data set [1] (seeded slurries at RT and 5° C.) is “No evidence of polymorphism”.

Consider `CCCCCc1cc(OC(=O)c2ccc3ccccc3c2)c2c(c1)OC(C)(C)[C@@H]1CCC(C)=C[C@@H]21` [DMSO solvate], for which the “Time of conversion to Form C in the solid-state” value in data set [2] is “within five days”.

For the compound `CCCCCc1cc(OC(=O)c2ccc3ccccc3c2)c2c(c1)OC(C)(C)[C@@H]1CCC(C)=C[C@@H]21` [DMF solvate of Group D], the solubility in the data set “Gravimetric solubility” (solvent DMF, Batch 8) was 95 mg/mL. The “Time of conversion to Form C in the solid-state” value in data set [2] is “overnight”.

`CCCCCc1cc(OC(=O)c2ccc3ccccc3c2)c2c(c1)OC(C)(C)[C@@H]1CCC(C)=C[C@@H]21` [Form H, (6aR,10aR)-6a,7,8,10a-tetrahydro-6,6,9-trimethyl-3-pentyl-6H-dibenzo[b,d]pyran-1-yl ester]: the Relative thermodynamic stability result in data set [3] (at 5° C., ripening incomplete within 29 days) is recorded as “likely the most-stable form”; in data set [3] (between 25-60° C., non-solvate forming solvents), “most stable non-solvated crystal form; also recorded: thermodynamically most-stable form”. Besides, the solubility is 71.4 mg/mL (≈ 152 mM) in data set [4] (crystallisation liquors over suspended solid, 5 °C, batch 5, Toluene/MeOH (3:7), seed G, heat T 25, isolation T 5, 10.0 mL/g, SP 11); 36.2 mg/mL (≈ 77.2 mM) in data set [4] (crystallisation liquors over suspended solid, 25 °C, batch 5, EtOAC/EtOH (2:8), seed H, heat T 50, isolation T 25, 8.0 mL/g, SP 17, Exp 47); 11.1 mg/mL (≈ 23.7 mM) in data set [4] (crystallisation liquors over suspended solid, 25 °C, batch 5, Toluene/EtOH (1:9), seed G/H, heat T 55, isolation T 25, 9.9 mL/g, SP 16, Exp 46); 19.6 mg/mL (≈ 41.8 mM) in data set [4] (crystallisation liquors over suspended solid, 25 °C, batch 5, Toluene/EtOH (1:9), seed H, heat T 40, isolation T 25, 10.0 mL/g, SP 19, Exp 54); 36.2 mg/mL (≈ 77.2 mM) in data set [4] (crystallisation liquors over suspended solid, 25 °C, batch 5, Toluene/EtOH (2:8), seed H, heat T 25, isolation T 25, 5.0 mL/g, SP 18, Exp 52); 6.8 mg/mL (≈ 14.5 mM) in data set [4] (crystallisation liquors over suspended solid, 25 °C, batch 5, Toluene/MeOH (1:9), seed H, heat T 50, isolation T 25, 15.0 mL/g, SP 17, Exp 48). In addition, the solubility came to 25.1 mg/mL (≈ 53.6 mM) in data set [4] (crystallisation liquors over suspended solid, 25 °C, batch 5, Toluene/MeOH (2:8), seed H, heat T 50, isolation T 25, 6.0 mL/g, SP 17, Exp 41); 69.9 mg/mL (≈ 149 mM) in data set [4] (crystallisation liquors over suspended solid, 25 °C, batch 5, Toluene/MeOH (3:7), seed G, heat T 25, isolation T 25, 5.5 mL/g, SP 7); 80.2 mg/mL (≈ 171 mM) in data set [4] (crystallisation liquors over suspended solid, 25 °C, batch 5, Toluene/MeOH (3:7), seed G, heat T 25, isolation T 25, 8.0 mL/g, SP 7); 64.7 mg/mL (≈ 138 mM) in data set [4] (crystallisation liquors over suspended solid, 25 °C, batch 5, Toluene/MeOH (3:7), seed G, heat T 25, isolation T 25, 10.0 mL/g, SP 7); 71.4 mg/mL (≈ 152 mM) in data set [4] (liquors of the equilibrated crystallisation suspension, 5 °C, Toluene/MeOH (3:7), isolation 5 °C, SP 11, 10.0 mL/g, read-out: D9 Solubility at Isolation T); 36.2 mg/mL (≈ 77.2 mM) in data set [4] (liquors of the equilibrated crystallisation suspension, 25 °C, EtOAC/EtOH (2:8), isolation 25 °C, SP 17, 8.0 mL/g, read-out: D9 Solubility at Isolation T). Moreover, the solubility in data set [4] (liquors of the equilibrated crystallisation suspension, 25 °C, EtOAc/MeOH (1:3), isolation 25 °C, SP 21, 10.0 mL/g, read-out: D9 Solubility at Isolation T) turned out to be 8.9 mg/mL (≈ 19 mM); in data set [4] (liquors of the equilibrated crystallisation suspension, 25 °C, Toluene/EtOH (1:9), isolation 25 °C, SP 16, 9.9 mL/g, read-out: D9 Solubility at Isolation T), 11.1 mg/mL (≈ 23.7 mM); in data set [4] (liquors of the equilibrated crystallisation suspension, 25 °C, Toluene/EtOH (1:9), isolation 25 °C, SP 19, 10.0 mL/g, read-out: D9 Solubility at Isolation T) it was 19.6 mg/mL (≈ 41.8 mM); in data set [4] (liquors of the equilibrated crystallisation suspension, 25 °C, Toluene/EtOH (2:8), isolation 25 °C, SP 18, 5.0 mL/g, read-out: D9 Solubility at Isolation T), 36.2 mg/mL (≈ 77.2 mM); in data set [4] (liquors of the equilibrated crystallisation suspension, 25 °C, Toluene/MeOH (1:9), isolation 25 °C, SP 17, 15.0 mL/g, read-out: D9 Solubility at Isolation T) it was 6.8 mg/mL (≈ 14.5 mM); in data set [4] (liquors of the equilibrated crystallisation suspension, 25 °C, Toluene/MeOH (2:8), isolation 25 °C, SP 17, 6.0 mL/g, read-out: D9 Solubility at Isolation T), 25.1 mg/mL (≈ 53.6 mM). Besides, the solubility in data set [4] (liquors of the equilibrated crystallisation suspension, 25 °C, Toluene/MeOH (3:7), isolation 25 °C, SP 7, 5.5 mL/g, read-out: D9 Solubility at Isolation T) worked out at 69.9 mg/mL (≈ 149 mM); in data set [4] (liquors of the equilibrated crystallisation suspension, 25 °C, Toluene/MeOH (3:7), isolation 25 °C, SP 7, 8.0 mL/g, read-out: D9 Solubility at Isolation T) it was 80.2 mg/mL (≈ 171 mM); in data set [4] (liquors of the equilibrated crystallisation suspension, 25 °C, Toluene/MeOH (3:7), isolation 25 °C, SP 7, 10.0 mL/g, read-out: D9 Solubility at Isolation T) it was 64.7 mg/mL (≈ 138 mM); in data set [4] (liquors of the equilibrated crystallisation suspension, 25 °C, batch 5, EtOAc/MeOH (1:3), seed H, heat T 55, isolation T 25, 10.0 mL/g, SP 21, Exp 34) it was 8.9 mg/mL (≈ 19 mM).

Turning to `CCCCCc1cc(OC(=O)c2ccc3ccccc3c2)c2c(c1)OC(C)(C)[C@@H]1CCC(C)=C[C@@H]21` [Form F, (6aR,10aR)-6a,7,8,10a-tetrahydro-6,6,9-trimethyl-3-pentyl-6H-dibenzo[b,d]pyran-1-yl ester], the “Nature (thermodynamic stability of crystal form)” value in data set [3] is recorded as “Transient”. Further, the “Form conversion by PXRD” value in data set [2] (wet-cake after air-drying for five minutes at ambient) is on record as “converted to Form E”.

As for `CCCCCc1cc(OC(=O)c2ccc3ccccc3c2)c2c(c1)OC(C)(C)[C@@H]1CCC(C)=C[C@@H]21` [Form E, (6aR,10aR)-6a,7,8,10a-tetrahydro-6,6,9-trimethyl-3-pentyl-6H-dibenzo[b,d]pyran-1-yl ester], the “Nature (thermodynamic stability of crystal form)” value in data set [3] is recorded as “Metastable”. In data set [4] (crystallisation liquors over suspended solid, 25 °C, batch 5, Nitromethane, seed G, heat T 40, isolation T 25, 32.6 mL/g, SP 3), the solubility is 7 mg/mL (≈ 14.9 mM).

Turning to `CCCCCc1cc(OC(=O)c2ccc3ccccc3c2)c2c(c1)OC(C)(C)[C@@H]1CCC(C)=C[C@@H]21` [Acetone solvate of Group D], the solubility in the data set “Gravimetric solubility” (solvent Acetone, Batch 7) turned out to be 98 mg/mL. Further, the Stability of solvate entry in data set [2] (no phase-pure Group D isolated from acetone-containing solvents) is on record as “unstable”.

The values are drawn from patent US12522576B2, “Polymorphs of D9-THC naphthoylester” (priority 2019, dated 2026).
